# PubChem BioAssay (NCI)
#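 Briefly, cells in 96-well plates were exposed to five compound concentrations for 48 h, and endpoints were estimated by linear interpolation. GI50: concentration for 50% inhibition of growth. TGI is the concentration that stops growth completely.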
# Key:
# Experiment in all cases: NCI-60 cell line screen, 48 h
# [1] = test system: M14 melanoma
# [2] = test system: IGROV1 ovarian
# [3] = test system: SK-MEL-28 melanoma
# [4] = test system: 786-0 renal
# [5] = test system: OVCAR-4 ovarian
# [6] = test system: HCT-15 colon
# [7] = test system: SF-268 CNS
# [8] = test system: UACC-62 melanoma
# [9] = test system: CAKI-1 renal
# [10] = test system: MALME-3M melanoma
# [11] = test system: MDA-MB-231 breast
# [12] = test system: TK-10 renal
# [13] = test system: CCRF-CEM leukemia
# [14] = test system: ACHN renal
# [15] = test system: HT29 colon
# [16] = test system: RPMI-8226 leukemia
# [17] = test system: A498 renal
# [18] = test system: HL-60(TB) leukemia
# [19] = test system: T-47D breast
# [20] = test system: RXF 393 renal
# [21] = test system: U251 CNS
# [22] = test system: HS 578T breast
# [23] = test system: OVCAR-5 ovarian
# [24] = test system: MCF7 breast
# [25] = test system: NCI-H23 lung
# [26] = test system: SR leukemia
# [27] = test system: OVCAR-8 ovarian
# [28] = test system: UACC-257 melanoma
# [29] = test system: SK-MEL-5 melanoma
# [30] = test system: HCC-2998 colon
# [31] = test system: SK-MEL-2 melanoma
# [32] = test system: DU-145 prostate
# [33] = test system: MOLT-4 leukemia
# [34] = test system: NCI/ADR-RES ovarian
# [35] = test system: NCI-H460 lung
# [36] = test system: SN12C renal
# [37] = test system: BT-549 breast
# [38] = test system: K-562 leukemia
# [39] = test system: KM12 colon
# [40] = test system: SNB-19 CNS
# [41] = test system: UO-31 renal
# [42] = test system: SK-OV-3 ovarian
# [43] = test system: NCI-H522 lung
# [44] = test system: PC-3 prostate
# [45] = test system: COLO 205 colon
# [46] = test system: SW-620 colon
# [47] = test system: A549 NSCLC
# [48] = test system: SF-539 CNS
# [49] = test system: OVCAR-3 ovarian
# [50] = test system: HOP-62 NSCLC
# [51] = test system: MDA-MB-435
# [52] = test system: LOX IMVI melanoma
# [53] = test system: HCT-116 colon
# [54] = test system: SNB-75 CNS
# [55] = test system: NCI-H226 lung
# [56] = test system: HOP-92 NSCLC
# [57] = test system: SF-295 CNS
# [58] = test system: EKVX NSCLC
compound,measurement,setting,value
COc1ccc(C(=O)/C=C/c2cc(-c3cc(OC)c(OC)c(OC)c3)n[nH]2)cc1OC,GI50,[1],1.84 µM
same,TGI,[1],3.69 µM
same,GI50,[2],1.8 µM
same,TGI,[2],3.41 µM
same,GI50,[3],1.78 µM
same,TGI,[3],3.34 µM
same,GI50,[4],1.4 µM
same,TGI,[4],2.86 µM
same,GI50,[5],2.69 µM
same,TGI,[5],16.6 µM
same,GI50,[6],1.27 µM
same,TGI,[6],2.85 µM
same,GI50,[7],1.82 µM
same,TGI,[7],3.96 µM
same,GI50,[8],1.74 µM
same,TGI,[8],3.22 µM
same,GI50,[9],2.2 µM
same,TGI,[9],5.46 µM
same,GI50,[10],1.99 µM
same,TGI,[10],3.68 µM
same,GI50,[11],1.48 µM
same,TGI,[11],3.06 µM
same,GI50,[12],1.33 µM
same,TGI,[12],2.6 µM
same,GI50,[13],0.626 µM
same,TGI,[13],3.93 µM
same,GI50,[14],1.66 µM
same,TGI,[14],3.09 µM
same,GI50,[15],1.62 µM
same,TGI,[15],3.05 µM
same,GI50,[16],0.241 µM
same,TGI,[16],1.11 µM
same,GI50,[17],1.48 µM
same,TGI,[17],2.98 µM
same,GI50,[18],1.44 µM
same,TGI,[18],4.18 µM
same,GI50,[19],1.63 µM
same,TGI,[19],4.36 µM
same,GI50,[20],1.35 µM
same,TGI,[20],2.66 µM
same,GI50,[21],1.23 µM
same,TGI,[21],2.48 µM
same,GI50,[22],2.57 µM
same,TGI,[22],8.2 µM
same,GI50,[23],1.59 µM
same,TGI,[23],3.03 µM
same,GI50,[24],0.482 µM
same,TGI,[24],1.95 µM
same,GI50,[25],2.15 µM
same,TGI,[25],5.24 µM
same,GI50,[26],0.278 µM
same,TGI,[26],> 100 µM
same,GI50,[27],1.32 µM
same,TGI,[27],2.73 µM
same,GI50,[28],1.49 µM
same,TGI,[28],2.83 µM
same,GI50,[29],1.65 µM
same,TGI,[29],3.03 µM
same,GI50,[30],2.13 µM
same,TGI,[30],3.78 µM
same,GI50,[31],1.85 µM
same,TGI,[31],3.51 µM
same,GI50,[32],0.55 µM
same,TGI,[32],1.84 µM
same,GI50,[33],2.11 µM
same,TGI,[33],5.56 µM
same,GI50,[34],3.13 µM
same,TGI,[34],15.7 µM
same,GI50,[35],1.41 µM
same,TGI,[35],3.33 µM
same,GI50,[36],1.54 µM
same,TGI,[36],3.13 µM
same,GI50,[37],1.44 µM
same,TGI,[37],2.9 µM
same,GI50,[38],1.91 µM
same,TGI,[38],7.12 µM
same,GI50,[39],1.07 µM
same,TGI,[39],2.41 µM
same,GI50,[40],1.42 µM
same,TGI,[40],3.01 µM
same,GI50,[41],1.28 µM
same,TGI,[41],2.57 µM
same,GI50,[42],2.79 µM
same,TGI,[42],7.83 µM
same,GI50,[43],0.184 µM
same,TGI,[43],0.39 µM
same,GI50,[44],1.36 µM
same,TGI,[44],2.8 µM
same,GI50,[45],1.74 µM
same,TGI,[45],3.21 µM
same,GI50,[46],1.37 µM
same,TGI,[46],2.99 µM
same,GI50,[47],1.86 µM
same,TGI,[47],4.59 µM
same,GI50,[48],1.27 µM
same,TGI,[48],2.6 µM
same,GI50,[49],1.68 µM
same,TGI,[49],3.17 µM
same,GI50,[50],1.44 µM
same,TGI,[50],2.77 µM
same,GI50,[51],1.34 µM
same,TGI,[51],2.71 µM
same,GI50,[52],1.38 µM
same,TGI,[52],2.76 µM
Oc1cc2cccc[n+]2c2cc(Cl)ccc12,GI50,[53],60.3 µM
same,GI50,[7],56.3 µM
same,GI50,[9],65.9 µM
same,GI50,[11],29.2 µM
same,GI50,[54],91.5 µM
same,GI50,[13],35.9 µM
same,GI50,[55],81 µM
same,GI50,[15],71 µM
same,GI50,[16],57 µM
same,GI50,[17],18.2 µM
same,TGI,[17],32.4 µM
same,GI50,[22],84.5 µM
same,GI50,[26],48.4 µM
same,GI50,[27],92.3 µM
same,GI50,[30],83.3 µM
same,GI50,[56],5.06 µM
same,TGI,[56],9.88 µM
same,GI50,[33],57.3 µM
same,GI50,[36],45.2 µM
same,GI50,[37],78 µM
same,GI50,[41],57.9 µM
same,GI50,[43],86.3 µM
same,GI50,[45],56.9 µM
same,GI50,[51],14.9 µM
same,TGI,[51],28.1 µM
C=CCn1c(C)nc2ccc(Nc3nc(Nc4ccc5nc(C)n(CC=C)c5c4)c4ccccc4n3)cc21,GI50,[8],1.55 µM
same,TGI,[8],2.89 µM
same,GI50,[11],1.34 µM
same,TGI,[11],2.62 µM
same,GI50,[14],1.64 µM
same,TGI,[14],3.01 µM
same,GI50,[23],1.7 µM
same,TGI,[23],3.09 µM
same,GI50,[26],1.52 µM
same,TGI,[26],3.98 µM
same,GI50,[30],1.72 µM
same,TGI,[30],3.09 µM
same,GI50,[32],1.85 µM
same,TGI,[32],3.27 µM
same,GI50,[34],2.22 µM
same,TGI,[34],6.07 µM
same,GI50,[36],1.62 µM
same,TGI,[36],2.98 µM
same,GI50,[42],1.72 µM
same,TGI,[42],3.09 µM
same,GI50,[48],1.71 µM
same,TGI,[48],3.12 µM
COc1cc(Cn2c(-c3ccccc3)c(Cl)c3c2-c2oncc2CC3)cc(OC)c1,GI50,[1],4.22 µM
same,TGI,[1],18.1 µM
same,GI50,[2],4.89 µM
same,TGI,[2],21.7 µM
same,GI50,[3],8.52 µM
same,TGI,[3],> 100 µM
same,GI50,[57],3.05 µM
same,TGI,[57],> 100 µM
same,GI50,[4],12.9 µM
same,TGI,[4],> 100 µM
same,GI50,[5],6.57 µM
same,TGI,[5],79.8 µM
same,GI50,[6],4.84 µM
same,TGI,[6],> 100 µM
same,GI50,[53],3.47 µM
same,TGI,[53],14.9 µM
same,GI50,[7],9.61 µM
same,TGI,[7],> 100 µM
same,GI50,[8],3.84 µM
same,TGI,[8],31.3 µM
same,GI50,[9],5.24 µM
same,TGI,[9],> 100 µM
same,GI50,[10],4.16 µM
same,TGI,[10],21.1 µM
same,GI50,[11],11.4 µM
same,TGI,[11],44.9 µM
same,GI50,[12],26.5 µM
same,TGI,[12],> 100 µM
same,GI50,[54],5.03 µM
same,TGI,[54],75.3 µM
same,GI50,[13],3.54 µM
same,TGI,[13],> 100 µM
same,GI50,[58],4.97 µM
same,TGI,[58],> 100 µM
same,GI50,[55],13 µM
same,TGI,[55],43.3 µM
same,GI50,[14],9.31 µM
same,TGI,[14],> 100 µM
same,GI50,[15],3.71 µM
same,TGI,[15],> 100 µM
same,GI50,[16],7.11 µM
same,TGI,[16],> 100 µM
same,GI50,[17],2.96 µM
same,TGI,[17],90.3 µM
same,GI50,[18],3.32 µM
same,TGI,[18],38.6 µM
same,GI50,[19],17.5 µM
same,TGI,[19],> 100 µM
same,GI50,[20],5.96 µM
same,TGI,[20],21.5 µM
same,GI50,[21],6.2 µM
same,TGI,[21],> 100 µM
same,GI50,[22],3.71 µM
same,TGI,[22],82.3 µM
same,GI50,[23],47 µM
same,TGI,[23],> 100 µM
same,GI50,[24],3.81 µM
same,TGI,[24],> 100 µM
same,GI50,[25],6.15 µM
same,TGI,[25],> 100 µM
same,GI50,[26],2.92 µM
same,TGI,[26],15.5 µM
same,GI50,[27],15.9 µM
same,TGI,[27],> 100 µM
same,GI50,[28],39.3 µM
same,TGI,[28],> 100 µM
same,GI50,[29],5.5 µM
same,TGI,[29],19.6 µM
same,GI50,[30],9.97 µM
same,TGI,[30],> 100 µM
same,GI50,[56],50 µM
same,TGI,[56],> 100 µM
same,GI50,[31],10.6 µM
same,TGI,[31],> 100 µM
same,GI50,[32],26.6 µM
same,TGI,[32],> 100 µM
same,GI50,[33],3.43 µM
same,TGI,[33],> 100 µM
same,GI50,[34],2.58 µM
same,TGI,[34],8.96 µM
same,GI50,[35],4.91 µM
same,TGI,[35],84 µM
same,GI50,[36],12.7 µM
same,TGI,[36],38.4 µM
same,GI50,[38],3.08 µM
same,TGI,[38],> 100 µM
same,GI50,[39],4.19 µM
same,TGI,[39],> 100 µM
same,GI50,[40],22.8 µM
same,TGI,[40],> 100 µM
same,GI50,[41],4.16 µM
same,TGI,[41],27.7 µM
same,GI50,[42],15.2 µM
same,TGI,[42],> 100 µM
same,GI50,[43],2.15 µM
same,TGI,[43],10.1 µM
same,GI50,[44],7.12 µM
same,TGI,[44],> 100 µM
same,GI50,[45],8.03 µM
same,TGI,[45],30.6 µM
same,GI50,[46],3.7 µM
same,TGI,[46],19.2 µM
same,GI50,[47],8.57 µM
same,TGI,[47],> 100 µM
same,GI50,[48],8.19 µM
same,TGI,[48],70.9 µM
same,GI50,[49],4.63 µM
same,TGI,[49],22.9 µM
same,GI50,[50],44 µM
same,TGI,[50],> 100 µM
same,GI50,[51],2.26 µM
same,TGI,[51],5.97 µM
same,GI50,[52],3.06 µM
same,TGI,[52],12 µM
